pIC50: −log10 of the molar value.
Experiments:
RARβ = RARβ (Homo sapiens, UniProt P10826); test: activation of RARβ on the (TREpal)2-tk-CAT reporter construct; format: cell-based; details: 1.0 μM
RXRα = RXRα (Homo sapiens, UniProt P19793); test: activation of RXRα on the (TREpal)2-tk-CAT reporter construct; format: cell-based; details: 1.0 μM
[1] = tested on: human acute megakaryocytic leukemia cell line M07e; test: M07e cell growth / proliferation; format: cell-based
Protocol: (§1) Cell Growth: IL-3-transfected M07e cells have been described by Thacker, D. J., et al., Leukemia 8: 871-877 (1994). Cells were grown in RPMI supplemented with 5 percent heat-inactivated fetal bovine serum (FBS) and 25 μg/ml gentamycin in a […], 5% CO2, and 100% humidity environment. Leukemic cells were obtained from patients who met the criteria for the diagnosis of AML or CML in blast crisis (see Table 1). Studies were approved by the Wayne State University Institutional Review Board. Informed consent was obtained from all patients. Leukemic blasts from patients were isolated using Ficoll hypaque. Cells at the interface between plasma and red blood cells were diluted with sterile PBS, then layered over Ficoll hypaque (1.077 density), and the leukemic cells collected at the interface. The sample to be studied represented greater than 90% blasts. The patient leukemia samples were grown in RPMI medium supplemented with 10% FBS, gentamycin (25 μg/ml), IL-3 (20 ng/ml), SCF (25 ng/ml), GM-CSF (20 ng/ml) and G-CSF (20 ng/ml). Cell growth was assessed using a cell proliferation kit.

[2] = tested on: human acute megakaryocytic leukemia cell line M07e; test: M07e apoptosis quantification; format: cell-based
Protocol: (§2) Apoptosis Quantification: Staining of apoptotic cells was performed as described by Gavreli, Y., et al., (J. Cell. Biol. 119: 493-501 (1992)) and Whitacre, C. M., et al., (Cancer Res. 55: 3697-3701 (1995)). After 3-Cl-AHPC treatment, cells were harvested, washed with PBS and resuspended at 1×10^6 cells/ml. Cell suspensions (50 μl) were stained with […] of acridine orange solution ([…]) in PBS in the dark. Cells displaying fragmented DNA were detected using a fluorescent microscope. Apoptotic cells were also detected using a kit. Cells that incorporated fluorescein labeled deoxyuridine triphosphate were detected using flow cytometry.

[3] = tested on: leukemic blasts from patients (AML or CML in blast crisis); test: proliferation of patient leukemic blasts; format: cell-based; details: Homo sapiens
Protocol: as §1

patient leukemic cells = test: apoptosis of patient leukemic cells by tunnel assay and flow cytometry; format: cell-based, human; details: for apoptotic cells: 1 μM, 24 hours
Protocol: as §2
Flow Cytometry: Flow cytometry was performed on a flow cytometer equipped with an argon ion laser tuned to 15 mW at […] for fluorescence excitation and light scattering. Fluorescein isothiocyanate (FITC) fluorescence was detected using a 530/30 nm band pass filter and propidium iodide (PI) fluorescence was reflected with a 560-nm short pass dichroic filter using a 585/42-nm band pass filter. The doublet discrimination module was used to identify cell aggregates (Sharpless, T., et al., Acta Cytologica 19: 577-581 (1975)). Typically, 20,000 events of list mode data were saved and analyzed.

[4] = tested on: leukemic blasts from patient 1; test: leukemia colony formation in methylcellulose; format: cell-based, human; details: 14 days
Protocol: Leukemia Colony Formation: Leukemic blasts (1×10^5 cells) from patient 1 (Table 1) were isolated as described above and cultured in methylcellulose supplemented with 20% FCS, SCF, and IL-3, GM-CSF and G-CSF at a final concentration of 10 ng per ml, cells were incubated for 14 days at 37° C. in a 5% CO2 humidified atmosphere in the presence and absence of 3-Cl-AHPC after which time colonies (>40 cells) were counted.

[5] = tested on: committed marrow stem cells (CFU-GM); test: CFU-GM colony formation (species not stated); format: cell-based; details: concentrations which completely inhibited leukemic colony formation
Protocol: (§3) CFU-GM Colony Formation: The CFU-GM colony assay was performed as described in Parchment et al., (J. Natl. Cancer Inst. 86: 273-280 (1994)).

[6] = CFU-GM colony formation, mouse bone marrow; format: cell-based; details: mouse, bone marrow CFU-GM progenitor cells
Protocol: as §3

mouse CFU-GM = test: CFU-GM colony formation, mouse bone marrow; format: cell-based
Protocol: as §3

[7] = tested on: caspases in patient leukemic cells; test: caspase activation in patient leukemic cells; format: cell-based, human; details: 1 μM
Protocol: Activation of caspases-1, -2, -3, -6, -8 and -9 was assessed using a caspase activation kit.

[8] = tested on: ERK, p38 and JNK kinases in M07e and patient leukemic cells; test: activation of MAPK pathways (phospho-p38, phospho-ERK, phospho-JNK Western blots); format: cell-based, human; details: 1 μM
Protocol: Western Blots: Western blots were performed according to the protocol of Sheikh, M. S., et al., (Oncogene, 9: 3407-3415 (1994)). Logarithmically growing cells were treated with 3-Cl-AHPC for various times and cells were harvested and lysed in Laemmli lysis buffer (0.5 M Tris-HCl, pH 6.8, 0.002M EDTA, 10% glycerol, 10% sodium dodecyl sulfate (SDS), and 5% β-mercaptoethanol). Protein lysates (50 μg/lane) were electrophoresed on 12% SDS-polyacrylamide gels and transferred to nitrocellulose membranes. Membranes were blocked with 5% nonfat dried milk in PBS/0.5% Tween 20 and then incubated with the appropriate antibodies. Horseradish peroxidase-conjugated rabbit anti-mouse IgG was used as the secondary antibody, and bands were developed using the Amersham ECL non-radioactive method.

cancer cells = test: mitochondrial membrane potential (Δψm) using Rh123; format: cell-based; details: 10^−6 M
ZR-75 = test: apoptosis induction / cell death in breast cancer cells; format: cell-based, human
MDA-MB-468 = test: as above; format: cell-based, human
[9] = tested on: ALL cells obtained from patients; test: apoptosis of primary ALL cells obtained from patients; format: cell-based, human; details: primary cultures

Chain of RARβ (P10826 whole entry, species assumed): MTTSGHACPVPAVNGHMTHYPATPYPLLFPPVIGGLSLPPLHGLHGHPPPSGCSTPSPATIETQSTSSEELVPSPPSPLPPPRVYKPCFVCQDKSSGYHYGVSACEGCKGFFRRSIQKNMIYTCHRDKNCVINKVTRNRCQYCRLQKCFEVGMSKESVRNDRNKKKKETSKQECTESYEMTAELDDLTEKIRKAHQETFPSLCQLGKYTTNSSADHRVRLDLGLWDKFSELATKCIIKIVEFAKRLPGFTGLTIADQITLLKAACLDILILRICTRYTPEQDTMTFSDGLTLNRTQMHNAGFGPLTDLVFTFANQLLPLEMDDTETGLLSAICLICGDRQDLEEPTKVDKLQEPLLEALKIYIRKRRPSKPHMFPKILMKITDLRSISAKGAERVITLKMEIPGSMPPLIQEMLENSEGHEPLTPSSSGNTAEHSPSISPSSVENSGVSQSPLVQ
Chain of RXRα (P19793 whole entry): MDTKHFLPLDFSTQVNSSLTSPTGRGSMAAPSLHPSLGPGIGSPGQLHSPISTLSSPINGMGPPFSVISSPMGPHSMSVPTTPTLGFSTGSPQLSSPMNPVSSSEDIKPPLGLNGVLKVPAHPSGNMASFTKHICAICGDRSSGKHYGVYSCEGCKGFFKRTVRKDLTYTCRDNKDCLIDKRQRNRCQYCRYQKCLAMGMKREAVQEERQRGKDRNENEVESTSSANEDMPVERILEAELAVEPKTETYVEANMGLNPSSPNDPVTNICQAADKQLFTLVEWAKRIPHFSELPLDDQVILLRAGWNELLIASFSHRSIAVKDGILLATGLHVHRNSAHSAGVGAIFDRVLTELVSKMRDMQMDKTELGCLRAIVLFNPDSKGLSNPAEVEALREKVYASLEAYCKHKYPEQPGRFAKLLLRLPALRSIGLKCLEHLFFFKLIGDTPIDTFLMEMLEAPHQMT

For `O=C(O)/C=C/c1ccc(-c2ccc(O)c(C34CC5CC(CC(C5)C3)C4)c2)c(Cl)c1` [Example 3-Cl-AHPC, (E)-4-[3-(1-Adamantyl)-4-hydroxyphenyl]-3-chlorocinnamic acid], the “activation of RARβ” value (RARβ) was “does not activate”, the “activation of RXRα” value (RXRα) was “does not activate” and the “concentration required to inhibit growth of M07e cells” value [1] was 0.2 µM. The inhibition of growth ([1]; 0.2 μM) was “inhibition of growth”, the inhibition of proliferation ([1]; varying concentrations over time) was “progressive increase in the inhibition of proliferation” and the apoptosis ([2]; 0.2 μM) was “no significant increase in apoptosis”. The apoptosis ([2]; 0.5 and 1.0 μM) was “onset of apoptosis”, the “concentration required to induce apoptosis” value ([2]; M07e cells) was 0.5 µM and the inhibition at 1 µM [3] was 60 to 90%. The “patient leukemic cells that underwent apoptosis” value (patient leukemic cells) was “over 80%”, the apoptotic cells (patient leukemic cells; patient 1) was 67% and the apoptotic cells (patient leukemic cells; patient 10) was 80%. For the same compound, the “concentration for complete inhibition of leukemia colony formation” value [4] was 600 nM, the pIC50 ([4]; Homo sapiens, 336 h, patient 1, read-out: inhibition of leukemia colony formation, ED50 (IC50)) was 6.43 and the “inhibition of CFU-GM colony formation” value [5] was 30%. The IC90 [6] was 0.315 to 0.794 µM, the “toxicity to mouse relative to human CFU-GM” value (mouse CFU-GM) was 30 fold and the “activation of caspase-2” value [7] was 6 fold. The “activation of caspase-5” value [7] was “two-fold”, the “activation of caspase-6” value [7] was 4 fold and the “activation of caspase-8” value [7] was 4 fold. For the same compound, the “activation of caspase-9” value [7] was “two-fold”, the “activation of caspase-3” value ([7]; 24 hours) was 8 fold and the “activation of caspase-3” value ([7]; 48 hours) was 14 fold. For the same compound, the “activation of ERK, p38 and JNK kinases” value [8] was “inactivation of ERK, p38 and JNK kinases”, the “percentage of cells with Δψm loss” value (cancer cells) was “significant increases in the percentage of cells with Δψm loss” and the ED50 (concentration that results in 50% cell death) (ZR-75) was 0.7 µM. For the same compound, the ED50 (concentration that results in 50% cell death) (MDA-MB-468) was 0.71 µM and the “apoptosis of ALL cells obtained from patients” value [9] was “resulted in their apoptosis”.

From patent publication USRE42700E1, “Induction of apoptosis in cancer cells” (Sanford-Burnham Medical Research Institute, priority 2001, dated 2011)
